Patent US12285434B2, “Therapeutic, preventive, or improvement agent for inflammatory disease and allergic disease” (The University of Tokyo, priority 2018, dated 2025)

Legend:
[1] = tested on: acute lung injury model mice; assay: Hydrochloric acid-induced acute lung injury (pneumonia, pulmonary edema); format: in vivo, mouse; settings: 50 μg/kg intraperitoneally 5 minutes before and 3 hours after HCl
Experimental: Fifty (50) μL of 0.1 N hydrochloric acid was nasally administered to 57BL/6 strain mice (male, 8 to 12 weeks old) to prepare acute lung injury model mice (hereinafter, sometimes referred to as “pneumonia group”). On the other hand, 50 μg/kg 5,6-DiHETE (manufactured by Cayman Chemical) was intraperitoneally administered 5 minutes before and 3 hours after the nasal administration of hydrochloric acid (hereinafter, sometimes referred to as “5,6-DiHETE-administered group”).
The lungs of the pneumonia group and the 5,6-DiHETE-administered group were collected 6 hours after the nasal administration of hydrochloric acid, fixed in 4% paraformaldehyde for 24 hours, embedded in paraffin, and cut into 2 μm-thick sections. Hematoxylin staining and eosin staining of these sections were performed according to a conventional method.
The wet/dry weight ratio was used as an index of pulmonary edema (Rachmilewitz D. et al., Gastroenterology, 97: 326-337(1989)). Specifically, 6 hours after the nasal administration of hydrochloric acid, the lungs were collected and the wet weights were measured. The lungs were then dried at 60° C. for 24 hours, and, thereafter, the dry weight was measured. In addition, the ventilatory capacity of the lungs was evaluated as an index of pneumonia using arterial blood oxygen saturations.

[2] = tested on: eNOS phosphorylation in HUVECs; assay: Histamine-induced eNOS phosphorylation (Western blot); format: cell-based, human; settings: pretreatment 0.1 μM, 15 minutes; histamine 10 μM, 5 minutes
Experimental: (§1) In Examples 4 to 6, human umbilical vein endothelial cells (hereinafter, sometimes referred to as “HUVECs”, manufactured by Lonza) were cultured in EGM-2 (manufactured by Lonza K.K.). These cells (passages 4 to 9) were used for experiments after 4-hour starvation in EBM-2 (manufactured by Lonza K.K.) containing 2% FBS.
To the plates on which the HUVECs were cultured, 5,6-DiHETE was added so as to attain 100 nM, and, 15 minutes after the addition, histamine was added so as to attain 10 μM. Then, in order to measure the protein masses of phosphorylated eNOS and eNOS, 5 minutes after the administration of histamine, the HUVECs were lysed with a modified lysis buffer (50 mM Tris-HCl (pH 7.4), 0.1 mM EDTA, 0.1 mM EGTA, 1% NP-40 substitute, 0.1% SDS, 0.1% deoxycholic acid, 50 mM NaF, 1 mM Na3VO4, and 10 mM β-glycerophosphate). […] Bands were detected and quantified using an Odyssey system (manufactured by LI-COR Biosciences) (FIG. 5B). Specifically, the bands of phosphorylated eNOS and eNOS were detected by scanning (800 nm) with the Odyssey system, and their intensity (band brightness) was quantified. The phosphorylation level of eNOS (ratio of phosphorylated eNOS to eNOS) was quantified and evaluated by a relative value obtained by dividing the band brightness of phosphorylated eNOS by the band brightness of eNOS. […]

NO production in HUVECs = assay: Histamine-induced NO production (nitrite and nitrate); format: cell-based, human; settings: pretreatment 0.1 μM, 15 minutes; histamine 10 μM
Experimental: as §1
The HUVECs were washed three times with HEPES and incubated in HEPES supplemented with 1 mM L-arginine and 10 μM tetrahydrobiopterin. After equilibration for 30 minutes, the medium was exchanged, and the cells were incubated for additional 30 minutes. […] The conditioned media before and after the stimulation (100 μL each) were collected and centrifuged in each amount of 300 g for 3 minutes. The supernatants were collected, and used to measure nitrite and nitrate, as stable metabolites of NO, by an ENO-20 NOx analyzer (manufactured by Eicom Corporation). The degrees of increases of nitrite and nitrate levels after the stimulation were normalized with cellular protein contents.

HUVECs = assay: Endothelial barrier function: transendothelial electrical resistance (TER); format: cell-based, human
Experimental: as §1
The in vitro endothelial barrier function was evaluated by measuring the transendothelial electrical resistance (hereinafter, sometimes referred to as “TER”) of the HUVECs prepared in the above item (1) over time. Specifically, the transendothelial electrical resistance was measured using an xCELLigence Real-Time Cell Analyzer DP system (manufactured by Roche). The system monitors changes in TER across an interdigitated microelectrode at the bottom of tissue culture E-plates (manufactured by Roche). The HUVECs (8,000 cells) were plated on the E-plates and incubated until confluent. Then, the following operation (a) or (b) was performed.
(a) Each reagent was added to plates on which the HUVECs were cultured, so as to give a vehicle, 1 U/mL thrombin, 1 μM forskolin, or 0.1 μM or 0.3 μM 5,6-DiHETE (FIGS. 4A and 4B).
(b) A vehicle or […] was added to plates on which the HUVECs were cultured, so as to attain 10 μM. […] Thirty (30) minutes after the addition, 10 μM histamine was added to each plate 30 minutes after the addition (FIGS. 4C and 4D).
In the above operations (a) and (b), the TER was measured every 60 seconds. For normalization, the cell index value at each time point is shown as a ratio relative to the initial value. The maximum normalized cell index after stimulation was quantified and represented as maximal response. Note that it is known that the disruption of the endothelial barrier function lowers the TER, but that the enhancement of the endothelial barrier function increases the TER.

CC/C=C\C/C=C\C/C=C\C/C=C\C[C@@H](O)[C@@H](O)CCCC(=O)O (racemic) [5,6-DiHETE, (±) 5,6-dihydroxy-8Z,11Z,14Z,17Z-eicosatetraenoic acid]
decrease in arterial blood oxygen saturation [1]: suppressed | epithelial damage and neutrophil tissue infiltration (HE-stained lung) ([1]; 6 hours): suppressed | moisture content of the lung tissue (wet/dry weight ratio) ([1]; 6 hours): significantly reduced except one case | reddishness of lung tissue (appearance) ([1]; 6 hours): improved | histamine-induced phosphorylation of eNOS (serine 1177) [2]: significantly reduced histamine-induced phosphorylation of eNOS | histamine-induced NO production (NO production in HUVECs): 0.11±0.06 pmol/μg protein | change of TER (HUVECs; 0.1 μM and 0.3 μM, alone): did not change the TER | TER, minimum (normalized cell index) (HUVECs; pretreatment 0.3 μM, 15 minutes, before histamine 10 μM): 0.915±0.012 fold
